The record followed here is patent US11667667B2, “Steroid derivative FXR agonist” (Chia Tai Tianqing Pharmaceutical Group Co., Ltd., priority 2016, dated 2023).

Data set [1] addresses T1, FXR (FXR HEK 293T DA cell line) (Homo sapiens, UniProt Q96RI1).
T1 construct: expressed in transfected cells; host or cells: HEK 293T (FXR HEK 293T DA)
Kind of data set: FXR cell experiment (β-lactamase reporter gene, GeneBLAzer).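 For FXR cell activity Efficacy: Emax relative to maximal signal of reference agonist chenodeoxycholic acid (CDCA).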 It is filed as cell-based. To be noted: for EC50: FXR HEK 293T DA cells, β-lactamase reporter, 16 hours; for Emax: HEK-293T, read-out: FXR cell activity Efficacy. How it is done:
Compound Dilution: The compound to be tested was prepared as a 100 μM DMSO solution, and then the compound was diluted 3-fold to 10 concentration points. The reference compound was prepared as a 100 μM DMSO solution, and then diluted 1.3-fold to 10 concentration points. The diluted DMSO solution was added to the wells of a 384-well plate in a volume of 200 nL per well. 2. […] The 384-well microplate was incubated at 37° C., 5% CO2 for 16 hours. 4. 6 μL of 1 mM LiveBLAzer™-FRET B/G (CCF4-AM) substrate was mixed with 60 μL of B solution and 934 μL of C solution, and added to the wells of the 384-well plate in a volume of 8 μL per well. […] The 384-well microplate was incubated in dark for 2 hours at room temperature. 6. […] 7.

Data set [2] deals with T2, Glutathione-S-transferase-labeled FXR human protein (Homo sapiens, UniProt Q96RI1).
T2 construct: purchased Invitrogen
T2 sequence (Q96RI1 1-486): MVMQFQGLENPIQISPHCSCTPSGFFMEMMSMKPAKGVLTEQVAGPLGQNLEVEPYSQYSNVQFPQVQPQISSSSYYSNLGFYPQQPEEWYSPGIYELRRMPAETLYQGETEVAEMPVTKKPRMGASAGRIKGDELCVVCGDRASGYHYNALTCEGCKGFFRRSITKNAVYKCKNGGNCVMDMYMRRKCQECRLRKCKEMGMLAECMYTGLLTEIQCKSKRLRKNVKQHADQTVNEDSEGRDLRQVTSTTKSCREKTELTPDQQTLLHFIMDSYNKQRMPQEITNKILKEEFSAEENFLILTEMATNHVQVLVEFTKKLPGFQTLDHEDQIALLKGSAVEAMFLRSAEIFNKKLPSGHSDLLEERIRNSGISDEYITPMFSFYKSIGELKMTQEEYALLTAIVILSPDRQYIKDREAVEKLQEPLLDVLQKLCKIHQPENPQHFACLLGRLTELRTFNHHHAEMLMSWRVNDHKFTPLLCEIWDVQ
Kind of data set: FXR biochemical experiment (AlphaScreen, coactivator recruitment). The settings on record: for EC50: AlphaScreen, GST-FXR human protein + biotin-labeled steroid receptor coactivator, read-out: FXR enzyme activity EC50; for Emax: ratio of highest signal of the compound to that of the reference compound, read-out: FXR enzyme activity Efficacy. How it is done: FXR Biochemical Experiment Experimental Purpose: The activation effect of the compound on FXR binding reaction was detected by AlphaScreen. […] Protein: Glutathione-S-transferase-labeled FXR human protein (Invitrogen) 2. Co-activator: Biotin-labeled steroid receptor coactivator (Anaspec) 3. […] Compound Dilution: The compound to be tested was prepared as a 40 μM DMSO solution, and then diluted 3-fold to 10 concentration points. The reference compound was prepared as a 400 μM DMSO solution, and then diluted 1.5-fold to 10 concentration points. The diluted DMSO solution was added to the wells of a 384-well plate in a volume of 150 nL per well. 2. […] 4. […] The operation during the experimental process was protected from light. The incubation was performed for 1 hour at room temperature. 5. […] The operation during the experimental process was protected from light. The incubation was performed for 1 hour at room temperature. 6. EC50 test: Envision was used with excitation at 680 nm to read the […] signals at 520-620 nm. 7. Analytical data: The data were analyzed via using Prism 5.0, and the EC50 values of the activation effects of the compounds were calculated.

A short description of data set [3]: Pharmacokinetics in mice administrated with single compound. In kind it is in vivo, mice (C57BL/6J). To be noted: for drug exposure compared with control compound INT-747 / peak concentration compared with control compound INT-747: mice, oral administration at the same dosage. How it is done: Pharmacokinetics in Mice Administrated with Single Compound:
12 male mice (C57BL/6J) were randomly divided into two groups, i.e., 6 mice per group. […] Plasma (using K2-EDTA as anticoagulant) samples were taken at 0.083, 0.25, 0.5, 1, 2, 4, 6, 8 and 24 hours in the intravenous administration group after administration; and plasma samples were taken at 0.25, 0.5, 1, 2, 4, 6, 8 and 24 hours in the oral administration group after administration. For 6 animals in each group, blood samples were collected for 3 animals at one time point. The first batch of 3 animals was alternately sampled with the second batch of 3 animals. Plasma sample analysis was performed by using LC-MS/MS. The resultant plasma concentrations were plotted with repect to time, and PK parameters were calculated by using Phoenix WinNonlin 6.3.

Data set [4] in a line: Liver-blood ratio experiment of mice via cassette dosing. In kind it is in vivo, mice (C57BL/6J). The settings on record: for Concentration in liver / Concentration in plasma / Concentration ratio of liver to plasma: oral cassette 2 mg/kg. As for the experimental part: Liver-Blood Ratio Experiment of Mice Via Cassette Dosing
6 male mice (C57BL/6J) were grouped as an oral administration group. 5 kinds of the developed drugs were contained in the formulation, and intragastrical administration was performed at a dose of 2 mg/kg/compound (the vehicle was 0.5% HPMC aqueous solution). The five compounds were firstly and respectively dissolved in the vehicle, and sonicated or whirled to form a 1 mg/mL solution (clear solution or suspension), respectively; and then the solutions of the five compound were mixed in equal volumes (1:1:1:1:1, v:v:v:v:v) into a glass bottle. After intragastrical oral administration, plasma and liver tissue samples were collected from 3 animals at 0.5 h after administration; corresponding samples were collected from the other 3 animals at 3 h after administration. After collection, the liver tissue was homogenized by using ice-cold homogenization buffer (methanol:15 mM PBS buffer (pH 7.4)=1:2, v:v) based on the ratio of liver weight:homogenization buffer volume=1:3. Plasma and liver tissue samples were analyzed by using a five-in-one LC-MS/MS analysis method developed in advance. The concentrations of plasma and liver tissue homogenate were obtained, and the concentration ratios of liver tissue to plasma were calculated by using Excel.

Setting [5] is: mouse, plasma, male C57BL/6J mice, oral 10 mg/kg.
Where [6] appears, read: oral, same dosage, at 0.5 h and 3 h.

T1 sequence (Q96RI1 with tags, fused parts or gaps limits assumed): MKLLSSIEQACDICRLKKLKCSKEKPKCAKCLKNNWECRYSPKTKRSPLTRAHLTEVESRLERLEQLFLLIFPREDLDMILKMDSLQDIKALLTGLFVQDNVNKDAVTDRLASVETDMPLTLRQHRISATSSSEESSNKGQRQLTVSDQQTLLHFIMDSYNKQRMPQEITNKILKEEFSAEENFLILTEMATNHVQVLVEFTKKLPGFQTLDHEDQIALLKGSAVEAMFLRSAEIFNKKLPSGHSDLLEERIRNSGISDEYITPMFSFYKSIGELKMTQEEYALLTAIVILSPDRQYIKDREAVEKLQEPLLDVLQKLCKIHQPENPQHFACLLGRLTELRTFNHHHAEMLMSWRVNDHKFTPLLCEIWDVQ

Regarding `CC[C@H]1[C@@H](O)[C@@H]2[C@H](CC[C@]3(C)[C@@H]([C@H](C)CCN4CC(C(=O)O)CCC4=O)CC[C@@H]23)[C@@]2(C)CC[C@@H](O)C[C@@H]12` (stereo partly shown) [Example 1], in data set [1], the half-maximal effective concentration (EC50) was determined as 17.9 µM and the Emax was determined as 134%. Moreover, in data set [2], the EC50 stood at 0.9 µM and the Emax was determined as 320%.

Take `CC[C@@H]1C2C[C@H](O)CC[C@]2(C)[C@H]2CC[C@]3(C)[C@@H]([C@H](C)CCn4cc(C(=O)O)cn4)CC[C@H]3[C@@H]2[C@@H]1O` (stereo partly shown) [Example 4]: the EC50 in data set [1] was 1.87 µM; in data set [2], 0.72 µM. For the same compound, the Emax in data set [1] amounted to 131%; in data set [2], 334%.

With `CC[C@H]1[C@@H](O)[C@@H]2[C@H](CC[C@]3(C)[C@@H]([C@H](C)CCn4cc(C(=O)O)ccc4=O)CC[C@@H]23)[C@@]2(C)CC[C@@H](O)C[C@@H]12` [Example 5], the values for the EC50 in data set [1] and in data set [2] were 0.57 µM and 0.09 µM, respectively. The Emax in data set [1] amounted to 190%; in data set [2], 134%.

Consider `CC[C@H]1[C@@H](O)[C@@H]2[C@H](CC[C@]3(C)[C@@H]([C@H](C)CCn4ccc(C(=O)O)cc4=O)CC[C@@H]23)[C@@]2(C)CC[C@@H](O)C[C@@H]12` [Example 6], for which, in data set [1], the EC50 came to 5.16 µM and the Emax was found to be 132%. Also, in data set [2], the half-maximal effective concentration (EC50) was 0.36 µM and the Emax came out at 375%.

Consider `CC[C@H]1[C@@H](O)[C@@H]2[C@H](CC[C@]3(C)[C@@H]([C@H](C)CCOc4cccc(C(=O)O)c4)CC[C@@H]23)[C@@]2(C)CC[C@@H](O)C[C@@H]12` [Example 7], for which the half-maximal effective concentration (EC50) in data set [1] was 0.06 µM; in data set [2] it was 0.03 µM. Further, the Emax is 140% in data set [1] and 360% in data set [2].

In the case of `CC[C@H]1[C@@H](O)[C@@H]2[C@H](CC[C@]3(C)[C@@H]([C@H](C)CCOc4cc(C(=O)O)ccn4)CC[C@@H]23)[C@@]2(C)CC[C@@H](O)C[C@@H]12` [Example 9], in data set [1], the EC50 came out at 0.14 µM and the Emax is 130%. Also, in data set [2], the EC50 turned out to be 0.16 µM and the Emax stood at 407%.

With `CC[C@H]1[C@@H](O)[C@@H]2[C@H](CC[C@]3(C)[C@@H]([C@H](C)CCOc4ccc(C(=O)O)nc4)CC[C@@H]23)[C@@]2(C)CC[C@@H](O)C[C@@H]12` [Example 10], in data set [1], the EC50 amounted to 0.2 µM and the Emax was 138%. In data set [2], the EC50 is 0.06 µM and the Emax was found to be 188%.

Take `CC[C@H]1[C@@H](O)[C@@H]2[C@H](CC[C@]3(C)[C@@H]([C@H](C)CCOc4cncc(C(=O)O)c4)CC[C@@H]23)[C@@]2(C)CC[C@@H](O)C[C@@H]12` [Example 11]: in data set [1], it took 0.1 µM to reach a half-maximal effect (EC50) and the Emax was determined as 132%. Moreover, in data set [3], the “drug exposure compared with control compound INT-747” value was “higher” and the “peak concentration compared with control compound INT-747” value was “higher”. In addition, in data set [3] (setting [5]), the AUC came to 5.17 µM·h, the Cmax was found to be 1.43 µM and the time to peak (Tmax) turned out to be 2 h. In addition, in data set [2], the half-maximal effective concentration (EC50) amounted to 0.03 µM and the Emax came to 241%.

Take `CC[C@H]1[C@@H](O)[C@@H]2[C@H](CC[C@]3(C)[C@@H]([C@H](C)CCCn4cc(C(=O)O)ccc4=O)CC[C@@H]23)[C@@]2(C)CC[C@@H](O)C[C@@H]12` [Example 17]: the results for the EC50 in data set [1] and in data set [2] were 2.5 µM and 0.6 µM, respectively. Moreover, the Emax turned out to be 131% in data set [1] and 313% in data set [2].

For `CC[C@H]1[C@@H](O)[C@@H]2[C@H](CC[C@]3(C)[C@@H]([C@H](C)CCc4cccc(C(=O)O)c4)CC[C@@H]23)[C@@]2(C)CC[C@@H](O)C[C@@H]12` [Example 19], in data set [1], the EC50 turned out to be 0.37 µM and the Emax came to 143%. In data set [2], the half-maximal effective concentration (EC50) was determined as 0.15 µM and the Emax is 251%.

Turning to `CC[C@H]1[C@@H](O)[C@@H]2[C@H](CC[C@]3(C)[C@@H]([C@H](C)CCOc4ccc(C(=O)O)cn4)CC[C@@H]23)[C@@]2(C)CC[C@@H](O)C[C@@H]12` [Example 22], in data set [4] (0.5 h), the Concentration in liver came to 1.959 µM, the Concentration in plasma was 0.083 µM and the “Concentration ratio of liver to plasma” value is reported as 24. In addition, in data set [4] (3 h), the Concentration in liver came out at 0.701 µM, the Concentration in plasma was found to be 0.045 µM and the “Concentration ratio of liver to plasma” value is on record as 16. Also, in data set [4] (setting [6]), the “drug concentrations in the liver compared with control compound” value is “higher” and the “liver/blood concentration ratios compared with control compound” value was “higher”. Moreover, in data set [3], the “drug exposure compared with control compound INT-747” value was “higher” and the “peak concentration compared with control compound INT-747” value is given as “close to”. In data set [3] (mouse, plasma, male C57BL/6J mice, oral 10 mg/kg vs intravenous 2 mg/kg), this compound returned a bioavailability of 34%. Further, the Emax in data set [2] came out at 249%.

For `CC[C@H]1[C@@H](O)[C@@H]2[C@H](CC[C@]3(C)[C@@H]([C@H](C)CCOc4ncccc4C(=O)O)CC[C@@H]23)[C@@]2(C)CC[C@@H](O)C[C@@H]12` [Example 26], in data set [4] (0.5 h), the Concentration in liver came to 3.904 µM, the Concentration in plasma was determined as 0.387 µM and the “Concentration ratio of liver to plasma” value came to 10. In addition, in data set [4] (3 h), the Concentration in liver came out at 0.358 µM, the Concentration in plasma amounted to 0.018 µM and the “Concentration ratio of liver to plasma” value was 20. The “drug concentration in the liver compared with control compound” value in data set [4] (oral, same dosage, at 0.5 h) is on record as “higher”. The “liver/blood concentration ratios compared with control compound” value in data set [4] (setting [6]) is given as “higher”. For the same compound, in data set [2], the concentration giving a half-maximal response (EC50) is 0.13 µM and the Emax was 280%.

As to `CC[C@H]1[C@@H](O)[C@@H]2[C@H](CC[C@]3(C)[C@@H]([C@H](C)CCC(=O)O)CC[C@@H]23)[C@@]2(C)CC[C@@H](O)C[C@@H]12` [INT-747, reference compound], in data set [4] (0.5 h), the Concentration in liver worked out at 0.711 µM, the Concentration in plasma came to 0.151 µM and the “Concentration ratio of liver to plasma” value amounted to 5. Besides, in data set [4] (3 h), the Concentration in liver worked out at 0.625 µM, the Concentration in plasma was 0.063 µM and the “Concentration ratio of liver to plasma” value amounted to 10.
